This is an account of results in PMC6278306, “Anti-Leishmanial and Cytotoxic Activities of a Series of Maleimides: Synthesis, Biological Evaluation and Structure-Activity Relationship” (Molecules, 2018).

Values after ≈ are worked out from the molar mass of the structure shown.

In data set [1] the test system is 10 fungi. Details: method as in PMID 21481593. Particulars: against 10 fungi; cited from earlier work.
The subject of data set [2] is β-(1,3)-glucan synthase. The arrangement: method as in PMID 21612375. Particulars: cited from earlier work.
A short description of data set [3]: Cytotoxicity assay (Alamar Blue). Format: cell-based. The note with it: human, concentrations 10–0.0032 μg/mL. As to the method: In order to verify the safety of maleimides, they were tested for cytotoxicity against human monocytic leukemia cells (THP1) 50% cytotoxic concentration values represent the concentration of compound required to kill 50% of the THP1 cells were calculated (CC50). The selectivity indices were calculated using the formula SI = CC50 /IC50, against promastigotes. […] SIs of 16 and 42 were greater than 781.3.
(§1) In vitro anti-leishmanial assay. The antileishmanial activity of the compounds was tested in vitro against a culture of L. donovani promastigotes. The promastigotes were grown in RPMI 1640 medium supplemented with 10% fetal calf serum (Gibco Chem. Co., 81 Wyman Street, Waltham, MA, USA) at 26 °C. A three day old culture was diluted to 5 × 10^5 promastigotes/mL. Drug dilutions were prepared directly in cell suspension in 96-well plates. Plates were incubated at 26 °C for 48 h and the growth of Leishmania promastigotes was determined by the Alamar blue assay as described earlier. Standard fluorescence was measured on a Fluostar Galaxy plate reader (BMG Lab Technologies, Offenburg, Germany) at an excitation wavelength of 544 nm and an emission wavelength of 590 nm. Pentamidine and amphotericin B were used as the standard anti-leishmanial agents. IC50 values were computed from dose-response curves as above. The tested compounds were diluted with six concentrations (from 40–0.0128 μg/mL). Cytotoxicity assay. The in vitro cytotoxicity was determined against human monocytic leukemia cells (THP1) with a simple colorimetric method using the dye Alamar Blue. […] Cells were grown to a density between 0.2 and 1 × 10^6 cells/mL. Culture medium was replaced every 2–3 days with fresh growth medium. DMSO was used as the solvent, and the test compounds was with six concentrations from 10–0.0032 μg/mL.
The in vitro cytotoxicity was determined against human monocytic leukemia cells (THP1) with a simple colorimetric method using the dye Alamar Blue, which was reported in the reference (Mikus, J.; Steverding, D. A simple colorimetric method to screen drug cytotoxicity against Leishmania, using the dye Alamar Blue. Parasitol Int. 2000, 48(3),265-269.). THP1 suspensions were grown in RPMI-1640 medium supplemented with 10% FBS, 2 mM glutamine, 50 μg/mL […]
were grown to a density between 0.2 and 1×10^6 cells/mL. Culture medium was replaced every 2-3 days with fresh growth medium. DMSO was used as the solvent, and the test compounds was with six concentrations from 10-0.0032μg/mL.

Data set [4] deals with L. donovani promastigotes. Put plainly: In vitro anti-leishmanial assay (Alamar blue, promastigotes). Format: cell-based, Leishmania donovani. The note with it: for IC50: Leishmania donovani, 48 h, read-out: L. donvani IC50; for SI: SI = CC50 /IC50, THP1 vs promastigotes. Here is the method: Anti-leishmanial activity in vitro was described in terms of IC50, which is the effective concentration (μg/mL) required to achieve 50% growth inhibition, with promastigotes in their exponential growth phase.
as §1, with “Pentamidine and amphotericin B were used as the standard anti-leishmanial agents.” left out
A general note: Resazurin is reduced to fluorescent resorufin, in cell work by metabolically active cells.

The mark [5] stands for this setting: THP1 cells (human monocytic leukemia).

For the compound `CCCCN1C(=O)C=CC1=O` [N-butyl-maleimide], the MIC – broadly, the smallest concentration in the dilution series that meets the test's criterion for growth inhibition – in data set [1] is 0.48 to 15.63 µg/mL.

With `CC(C)(C)N1C(=O)C=CC1=O` [N-tert-butyl-maleimide], the “IC50 β-(1,3)-glucan synthase” value in data set [2] is 13.7 ± 2.3 µg/mL (≈ 89.4 µM).

For `O=C1C=CC(=O)N1CCCCc1ccccc1` [N-(4-phenylbutyl)-maleimide], in data set [1], the MIC was 0.48 to 15.63 µg/mL.

Regarding `Cc1c(Cl)cccc1N1C(=O)C(Cl)=C(Cl)C1=O` [Compound 40], the melting point – broadly, the temperature of the solid-liquid transition – is 162.3 to 164.1 °C. Also, the CC50 (usually the concentration that lowers cell viability or growth by half) in data set [3] (THP1 cells) is > 10 µg/mL. Besides, in data set [4], the 50% inhibitory concentration (IC50) – broadly, the point on the concentration scale where inhibition reaches its midpoint – came out at 0.13 µg/mL (≈ 0.447 µM) and the SI is >76.9.

On to `CCc1cccc(CC)c1N1C(=O)C(Cl)=C(Cl)C1=O` [Compound 39], for which the melting point is 204.1 to 205.8 °C. Also, in data set [3] (THP1 cells), the CC50 was > 10 µg/mL. In data set [4], the IC50 was 0.13 µg/mL (≈ 0.436 µM) and the SI is recorded as >76.9.

For the compound `Cc1cccc(C)c1N1C(=O)C(Cl)=C(Cl)C1=O` [Compound 38], the melting point is 200.8 to 201.6 °C. Further, the CC50 in data set [3] (THP1 cells) is > 10 µg/mL. In data set [4], the IC50 worked out at 0.45 µg/mL (≈ 1.67 µM) and the SI is >22.2.

`Cc1cccc(C)c1N1C(=O)C=CC1=O` [Compound 13] came in with a melting point of 188.8 to 190.4 °C. The same compound registered a CC50 in data set [3] (setting [5]) of 3.65 µg/mL (≈ 18.1 µM). In data set [4], the IC50 was determined as 0.1 µg/mL (≈ 0.497 µM) and the SI is 36.5.

The compound `CC1=CC(=O)N(c2cc(Cl)cc(Cl)c2)C1=O` [Compound 25] yielded a melting point of 170.8 to 173.2 °C. Also, in data set [3] (THP1 cells), the CC50 worked out at 0.8 µg/mL (≈ 3.12 µM). Further, in data set [4], the IC50 worked out at 0.34 µg/mL (≈ 1.33 µM) and the SI worked out at 2.4.

As to `CCN1C(=O)C=CC1=O` [N-ethyl-maleimide], the “IC50 β-(1,3)-glucan synthase” value in data set [2] was 8.5 ± 1.1 µg/mL (≈ 67.9 µM).

`Cc1ccc(Cl)cc1N1C(=O)C(Cl)=C(Cl)C1=O` [Compound 41]: the melting point lay in the range of 160.1 to 161.4 °C. For the same compound, in data set [3] (THP1 cells), the CC50 was > 10 µg/mL. Moreover, in data set [4], the IC50 came to 0.11 µg/mL (≈ 0.379 µM) and the SI was >90.9.

Compound `CCc1cccc(CC)c1N1C(=O)C=C(C)C1=O` [Compound 24] gave a melting point of 195.8 to 197.3 °C. Further, it took 4.39 µg/mL (≈ 18 µM) to reach half-maximal cytotoxicity in data set [3] (setting [5]) (CC50). In data set [4], the IC50 turned out to be 0.55 µg/mL (≈ 2.26 µM) and the SI amounted to 8.0.
